ChEMBL document CHEMBL3600363, “Discovery of potent, selective small molecule inhibitors of α-subtype of type III phosphatidylinositol-4-kinase (PI4KIIIα)” (Bioorg Med Chem Lett, 2015)

Assays:
[1] = molecular target: Phosphatidylinositol 4-kinase alpha (Homo sapiens, UniProt P42356); assay: Inhibition of N-terminal FLAG-tagged human full length recombinant PI4K3alpha using D-myo-phosphatidylinositol substrate and ATP incubated for 45 mins by ADP-Glo kinase Assay
[2] = molecular target: Phosphatidylinositol 4-kinase beta (Homo sapiens, UniProt Q9UBF8); assay: Inhibition of N-terminal GST-tagged human full length recombinant PI4K3beta expressed in Sf9 cells using D-myo-phosphatidylinositol substrate and ATP incubated for 45 mins by ADP-Glo kinase Assay
Phosphatidylinositol 4-kinase beta, sequence (Q9UBF8 whole entry, canonical isoform): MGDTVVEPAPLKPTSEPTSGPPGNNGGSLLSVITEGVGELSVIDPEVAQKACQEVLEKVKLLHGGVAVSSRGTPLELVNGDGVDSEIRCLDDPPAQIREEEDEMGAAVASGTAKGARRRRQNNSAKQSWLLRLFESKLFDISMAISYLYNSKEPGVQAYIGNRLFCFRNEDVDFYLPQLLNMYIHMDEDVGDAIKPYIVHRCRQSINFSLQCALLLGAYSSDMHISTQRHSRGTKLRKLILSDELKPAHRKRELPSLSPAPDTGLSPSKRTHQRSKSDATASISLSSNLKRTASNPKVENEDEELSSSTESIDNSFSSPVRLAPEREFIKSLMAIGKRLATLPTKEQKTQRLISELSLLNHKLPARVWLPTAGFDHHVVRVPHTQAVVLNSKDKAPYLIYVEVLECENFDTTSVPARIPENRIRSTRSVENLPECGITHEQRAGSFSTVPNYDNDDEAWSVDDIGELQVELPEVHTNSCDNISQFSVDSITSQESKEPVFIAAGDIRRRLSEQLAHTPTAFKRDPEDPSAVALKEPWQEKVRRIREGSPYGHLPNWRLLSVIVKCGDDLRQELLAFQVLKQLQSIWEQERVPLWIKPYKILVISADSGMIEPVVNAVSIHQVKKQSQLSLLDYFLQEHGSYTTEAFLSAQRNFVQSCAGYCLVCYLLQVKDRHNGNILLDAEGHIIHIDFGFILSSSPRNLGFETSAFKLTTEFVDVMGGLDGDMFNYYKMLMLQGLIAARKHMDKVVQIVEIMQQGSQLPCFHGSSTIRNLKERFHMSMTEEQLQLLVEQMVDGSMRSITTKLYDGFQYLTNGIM

[3] = molecular target: Phosphatidylinositol 4,5-bisphosphate 3-kinase catalytic subunit alpha isoform (Homo sapiens, UniProt P42336); assay: Inhibition of PI3Kalpha (unknown origin) pre-incubated for 20 mins before phosphatidylinositol 4, 5-bisphosphate substrate addition by kinase-glo plus luminescence assay
Phosphatidylinositol 4,5-bisphosphate 3-kinase catalytic subunit alpha isoform, sequence (P42336 whole entry, canonical isoform): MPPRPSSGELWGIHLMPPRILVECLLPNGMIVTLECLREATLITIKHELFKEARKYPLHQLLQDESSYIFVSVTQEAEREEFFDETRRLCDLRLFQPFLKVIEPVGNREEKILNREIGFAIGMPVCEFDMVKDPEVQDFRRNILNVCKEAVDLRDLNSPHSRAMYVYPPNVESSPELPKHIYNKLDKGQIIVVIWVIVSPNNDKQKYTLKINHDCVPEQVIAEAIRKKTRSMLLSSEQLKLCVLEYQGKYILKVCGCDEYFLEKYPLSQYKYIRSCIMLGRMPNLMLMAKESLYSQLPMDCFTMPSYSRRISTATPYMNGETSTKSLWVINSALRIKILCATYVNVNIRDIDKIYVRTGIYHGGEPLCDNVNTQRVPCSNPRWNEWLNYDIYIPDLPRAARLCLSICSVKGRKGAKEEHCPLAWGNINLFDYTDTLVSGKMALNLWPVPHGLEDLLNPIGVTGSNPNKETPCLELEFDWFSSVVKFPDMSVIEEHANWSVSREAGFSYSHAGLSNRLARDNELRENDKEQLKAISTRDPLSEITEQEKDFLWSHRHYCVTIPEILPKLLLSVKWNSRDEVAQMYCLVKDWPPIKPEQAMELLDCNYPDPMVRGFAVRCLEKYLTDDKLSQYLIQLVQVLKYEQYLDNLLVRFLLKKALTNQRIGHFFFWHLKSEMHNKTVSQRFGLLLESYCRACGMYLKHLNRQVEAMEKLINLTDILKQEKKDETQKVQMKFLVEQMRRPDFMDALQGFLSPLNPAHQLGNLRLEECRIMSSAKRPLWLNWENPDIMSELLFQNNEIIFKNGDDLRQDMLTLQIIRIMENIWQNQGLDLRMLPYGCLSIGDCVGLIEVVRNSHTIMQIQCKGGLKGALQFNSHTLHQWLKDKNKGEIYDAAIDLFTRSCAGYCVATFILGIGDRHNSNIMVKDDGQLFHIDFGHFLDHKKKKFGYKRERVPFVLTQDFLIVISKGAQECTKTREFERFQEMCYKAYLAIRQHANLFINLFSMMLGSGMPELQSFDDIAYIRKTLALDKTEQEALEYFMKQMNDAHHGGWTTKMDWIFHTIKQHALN

[4] = molecular target: Phosphatidylinositol 4,5-bisphosphate 3-kinase catalytic subunit beta isoform (Homo sapiens, UniProt P42338); assay: Inhibition of PI3Kbeta (unknown origin) pre-incubated for 20 mins before phosphatidylinositol 4, 5-bisphosphate substrate addition by kinase-glo plus luminescence assay
Phosphatidylinositol 4,5-bisphosphate 3-kinase catalytic subunit beta isoform, sequence (P42338 whole entry, canonical isoform): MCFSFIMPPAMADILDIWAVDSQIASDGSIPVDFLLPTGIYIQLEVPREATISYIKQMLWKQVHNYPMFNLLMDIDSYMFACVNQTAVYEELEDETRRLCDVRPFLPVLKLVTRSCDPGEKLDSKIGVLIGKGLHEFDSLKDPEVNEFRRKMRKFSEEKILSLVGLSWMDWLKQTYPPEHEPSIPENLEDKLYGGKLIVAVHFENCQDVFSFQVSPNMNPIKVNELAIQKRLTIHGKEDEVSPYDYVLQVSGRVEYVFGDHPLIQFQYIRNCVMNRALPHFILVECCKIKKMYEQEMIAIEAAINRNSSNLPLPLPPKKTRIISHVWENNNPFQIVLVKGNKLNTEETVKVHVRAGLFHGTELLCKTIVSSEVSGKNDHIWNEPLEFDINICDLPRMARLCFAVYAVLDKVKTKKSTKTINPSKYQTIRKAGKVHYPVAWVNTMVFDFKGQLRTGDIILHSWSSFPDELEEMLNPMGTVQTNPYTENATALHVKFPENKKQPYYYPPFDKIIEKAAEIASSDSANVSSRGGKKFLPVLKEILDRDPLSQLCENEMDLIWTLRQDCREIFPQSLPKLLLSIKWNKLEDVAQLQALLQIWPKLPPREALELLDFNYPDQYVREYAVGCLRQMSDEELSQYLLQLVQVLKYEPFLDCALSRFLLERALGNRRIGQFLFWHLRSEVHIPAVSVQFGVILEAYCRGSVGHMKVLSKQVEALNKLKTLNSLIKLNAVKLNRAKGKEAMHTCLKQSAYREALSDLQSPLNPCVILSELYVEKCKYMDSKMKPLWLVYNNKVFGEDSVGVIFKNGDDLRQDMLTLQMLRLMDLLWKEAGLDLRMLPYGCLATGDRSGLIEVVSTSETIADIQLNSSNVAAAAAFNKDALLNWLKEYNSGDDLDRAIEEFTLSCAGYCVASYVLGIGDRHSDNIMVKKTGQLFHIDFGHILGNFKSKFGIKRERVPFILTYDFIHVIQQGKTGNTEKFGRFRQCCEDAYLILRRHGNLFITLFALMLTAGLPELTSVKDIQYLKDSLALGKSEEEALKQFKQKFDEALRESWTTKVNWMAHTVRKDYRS

[5] = molecular target: Phosphatidylinositol 4,5-bisphosphate 3-kinase catalytic subunit gamma isoform (Homo sapiens, UniProt P48736); assay: Inhibition of PI3Kgamma (unknown origin) pre-incubated for 20 mins before phosphatidylinositol 4, 5-bisphosphate substrate addition by kinase-glo plus luminescence assay
[6] = molecular target: T1, Phosphatidylinositol 4,5-bisphosphate 3-kinase catalytic subunit delta isoform (Homo sapiens, UniProt O00329); assay: Inhibition of PI3Kdelta (unknown origin) pre-incubated for 20 mins before phosphatidylinositol 4, 5-bisphosphate substrate addition by kinase-glo plus luminescence assay
T1 sequence (O00329 whole entry): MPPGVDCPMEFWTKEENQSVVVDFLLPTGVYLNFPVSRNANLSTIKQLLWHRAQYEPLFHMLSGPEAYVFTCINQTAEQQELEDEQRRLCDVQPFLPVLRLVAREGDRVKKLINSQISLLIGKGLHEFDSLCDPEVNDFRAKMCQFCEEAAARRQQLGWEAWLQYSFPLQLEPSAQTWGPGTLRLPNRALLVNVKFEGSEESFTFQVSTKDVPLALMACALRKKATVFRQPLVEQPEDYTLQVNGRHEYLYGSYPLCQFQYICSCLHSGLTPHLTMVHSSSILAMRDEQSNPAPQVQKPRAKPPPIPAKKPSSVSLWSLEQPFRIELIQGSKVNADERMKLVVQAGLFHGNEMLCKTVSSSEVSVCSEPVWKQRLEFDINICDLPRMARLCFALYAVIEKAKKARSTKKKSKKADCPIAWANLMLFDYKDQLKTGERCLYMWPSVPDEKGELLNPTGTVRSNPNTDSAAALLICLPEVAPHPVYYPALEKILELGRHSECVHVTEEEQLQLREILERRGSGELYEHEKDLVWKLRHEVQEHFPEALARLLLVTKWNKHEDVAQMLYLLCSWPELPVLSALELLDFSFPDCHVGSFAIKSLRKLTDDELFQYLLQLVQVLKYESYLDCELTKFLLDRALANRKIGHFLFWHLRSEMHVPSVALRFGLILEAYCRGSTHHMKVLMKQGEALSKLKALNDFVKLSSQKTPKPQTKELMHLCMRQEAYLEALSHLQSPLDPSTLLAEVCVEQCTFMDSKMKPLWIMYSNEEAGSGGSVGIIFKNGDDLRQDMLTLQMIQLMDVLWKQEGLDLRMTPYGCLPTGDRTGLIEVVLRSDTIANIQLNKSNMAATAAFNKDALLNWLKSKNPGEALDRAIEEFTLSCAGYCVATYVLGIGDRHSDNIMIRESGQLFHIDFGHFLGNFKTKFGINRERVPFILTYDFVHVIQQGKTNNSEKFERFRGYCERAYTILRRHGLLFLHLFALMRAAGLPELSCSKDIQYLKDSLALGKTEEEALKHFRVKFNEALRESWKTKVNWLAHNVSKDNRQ

[7] = molecular target: Phosphatidylinositol 4-phosphate 5-kinase type-1 gamma (Homo sapiens, UniProt O60331); assay: Inhibition of PIP5K1C (unknown origin) using D-myo-phosphatidylinositol 4-phosphate substrate and ATP by ADP-Glo kinase Assay
[8] = Inhibition of PI4K3alpha in mouse NIH3T3 cells co-expressing PDGFRbeta receptor assessed as inhibition of PDGF-induced IP1 accumulation incubated for 30 mins by HTRF based assay; assay type: cell-based; details: NIH3T3, 0.5 h

Phosphatidylinositol 4-kinase alpha, sequence (P42356 whole entry): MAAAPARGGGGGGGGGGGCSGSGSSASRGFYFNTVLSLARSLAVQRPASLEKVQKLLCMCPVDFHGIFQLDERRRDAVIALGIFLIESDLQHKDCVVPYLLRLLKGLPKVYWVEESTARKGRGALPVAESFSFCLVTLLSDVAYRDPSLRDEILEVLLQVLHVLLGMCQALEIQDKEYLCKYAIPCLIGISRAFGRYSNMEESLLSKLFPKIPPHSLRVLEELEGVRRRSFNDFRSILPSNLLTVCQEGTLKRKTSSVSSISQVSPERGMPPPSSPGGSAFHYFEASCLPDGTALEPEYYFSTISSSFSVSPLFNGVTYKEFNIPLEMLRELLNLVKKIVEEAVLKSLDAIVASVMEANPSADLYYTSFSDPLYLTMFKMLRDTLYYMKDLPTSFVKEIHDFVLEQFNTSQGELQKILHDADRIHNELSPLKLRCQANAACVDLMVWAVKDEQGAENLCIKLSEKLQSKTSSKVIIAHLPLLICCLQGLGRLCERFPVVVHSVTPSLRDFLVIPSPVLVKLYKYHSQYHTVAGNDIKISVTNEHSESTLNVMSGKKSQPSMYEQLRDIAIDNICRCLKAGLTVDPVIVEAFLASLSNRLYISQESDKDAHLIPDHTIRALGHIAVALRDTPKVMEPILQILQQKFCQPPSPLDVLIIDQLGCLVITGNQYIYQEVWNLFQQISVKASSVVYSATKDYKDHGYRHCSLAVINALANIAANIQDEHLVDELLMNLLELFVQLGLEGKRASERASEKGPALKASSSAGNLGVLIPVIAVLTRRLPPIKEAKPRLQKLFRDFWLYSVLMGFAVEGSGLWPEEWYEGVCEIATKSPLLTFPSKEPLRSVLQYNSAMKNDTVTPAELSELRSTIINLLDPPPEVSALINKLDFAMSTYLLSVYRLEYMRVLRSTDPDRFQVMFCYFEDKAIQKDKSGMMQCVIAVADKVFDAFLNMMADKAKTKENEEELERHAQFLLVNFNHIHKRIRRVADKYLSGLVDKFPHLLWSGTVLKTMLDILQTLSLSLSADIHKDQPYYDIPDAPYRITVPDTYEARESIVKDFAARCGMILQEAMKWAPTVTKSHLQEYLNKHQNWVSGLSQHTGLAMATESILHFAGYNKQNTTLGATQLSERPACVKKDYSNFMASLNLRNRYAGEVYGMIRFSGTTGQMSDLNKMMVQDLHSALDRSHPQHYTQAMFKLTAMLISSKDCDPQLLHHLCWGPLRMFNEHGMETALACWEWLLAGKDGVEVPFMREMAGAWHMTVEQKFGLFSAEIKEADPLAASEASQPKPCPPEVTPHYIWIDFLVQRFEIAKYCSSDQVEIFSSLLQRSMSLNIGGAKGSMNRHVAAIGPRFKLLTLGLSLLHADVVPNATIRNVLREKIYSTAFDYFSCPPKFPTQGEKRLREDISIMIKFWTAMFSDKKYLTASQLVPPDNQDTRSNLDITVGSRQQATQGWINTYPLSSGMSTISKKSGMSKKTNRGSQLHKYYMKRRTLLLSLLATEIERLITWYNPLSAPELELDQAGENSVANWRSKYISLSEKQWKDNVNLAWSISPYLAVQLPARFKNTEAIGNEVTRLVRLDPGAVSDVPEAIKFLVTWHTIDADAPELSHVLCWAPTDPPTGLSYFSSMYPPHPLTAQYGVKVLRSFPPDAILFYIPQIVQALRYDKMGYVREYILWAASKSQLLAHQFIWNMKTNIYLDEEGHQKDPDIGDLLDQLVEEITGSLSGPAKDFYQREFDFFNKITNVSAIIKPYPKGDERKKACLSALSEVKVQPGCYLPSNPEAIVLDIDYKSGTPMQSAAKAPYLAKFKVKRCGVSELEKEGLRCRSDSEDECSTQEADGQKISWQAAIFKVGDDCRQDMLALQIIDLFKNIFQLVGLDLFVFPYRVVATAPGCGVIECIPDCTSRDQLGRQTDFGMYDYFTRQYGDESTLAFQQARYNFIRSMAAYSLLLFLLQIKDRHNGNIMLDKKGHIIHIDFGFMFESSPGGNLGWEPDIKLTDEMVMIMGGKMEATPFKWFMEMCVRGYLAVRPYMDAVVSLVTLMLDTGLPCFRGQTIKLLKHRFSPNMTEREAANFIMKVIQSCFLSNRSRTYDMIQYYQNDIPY

SMILES | IC50 [1] | IC50 [2] | IC50 [3] | IC50 [4] | IC50 [5] | IC50 [6] | IC50 [7] | IC50 [8]
CCOc1ccc(-c2ccc3nc(N)sc3c2)cn1 | 0.158 µM | 0.631 µM | 1.58 µM | 6.31 µM | 2 µM | 3.98 µM | > 100 µM | –
CNCc1ccc(-c2ccc3nc(N)sc3c2)cn1 | 2.51 µM | 3.16 µM | 63.1 µM | 79.4 µM | 50.1 µM | 63.1 µM | > 100 µM | –
CCN(C)c1ccc(-c2ccc3nc(N)sc3c2)cn1 | 0.631 µM | 1.58 µM | 6.31 µM | 39.8 µM | 3.98 µM | 12.6 µM | > 100 µM | –
Cc1ccc(-c2ccc3nc(N)sc3c2)cn1 | 1.58 µM | 0.501 µM | 1 µM | 2.51 µM | 1.26 µM | 1.26 µM | > 100 µM | –
COCCOc1ccc(-c2ccc3nc(N)sc3c2)cn1 | 0.316 µM | 1 µM | 2.51 µM | 7.94 µM | 3.16 µM | 6.31 µM | > 100 µM | –
CN(C)C(=O)c1ccc(-c2ccc3nc(N)sc3c2)cn1 | 1.26 µM | 39.8 µM | 39.8 µM | 79.4 µM | 20 µM | 63.1 µM | > 100 µM | –
CS(=O)(=O)c1cncc(-c2ccc3nc(N)sc3c2)c1 | 0.398 µM | 3.98 µM | 0.251 µM | 0.251 µM | 0.126 µM | 0.316 µM | > 100 µM | –
Nc1nc2ccc(-c3cnccn3)cc2s1 | 7.94 µM | 6.31 µM | 2 µM | 6.31 µM | 3.98 µM | 7.94 µM | > 100 µM | –
Nc1nc2ccc(-c3ccc(=O)[nH]c3)cc2s1 | 3.16 µM | 3.98 µM | 25.1 µM | 50.1 µM | 10 µM | 31.6 µM | 39.8 µM | –
Nc1nc2ccc(-c3cc[nH]c(=O)c3)cc2s1 | 0.316 µM | 0.631 µM | 3.98 µM | 6.31 µM | 1.26 µM | 10 µM | 15.8 µM | –
O=c1cc(-c2ccc3nc(NCC4CCOCC4)sc3c2)ccn1CC1CC1 | 0.00501 µM | 0.398 µM | > 200 µM | > 200 µM | 15.8 µM | 100 µM | > 100 µM | 0.794 µM
O=c1cc(-c2ccc3nc(NCC4CCS(=O)(=O)CC4)sc3c2)ccn1CC1CC1 | 0.002 µM | 0.631 µM | 79.4 µM | > 200 µM | 50.1 µM | > 200 µM | > 100 µM | 0.631 µM
O=c1cc(-c2ccc3nc(NC[C@H]4CC[C@H](C(=O)O)CC4)sc3c2)ccn1CC1CC1 | 0.001 µM | 0.251 µM | 100 µM | > 200 µM | 10 µM | > 79.4 µM | – | 0.316 µM

More lines, now with the values ahead:

IC50 [1] | IC50 [2] | IC50 [3] | IC50 [4] | IC50 [5] | IC50 [6] | IC50 [7] | IC50 [8] | SMILES
0.1 µM | 0.631 µM | 1.26 µM | 5.01 µM | 1 µM | 2 µM | > 100 µM | – | CCSc1ccc(-c2ccc3nc(N)sc3c2)cn1
0.0794 µM | 1.26 µM | 5.01 µM | 31.6 µM | 12.6 µM | 12.6 µM | > 100 µM | – | CC(C)Oc1ccc(-c2ccc3nc(N)sc3c2)cn1
0.631 µM | 1 µM | 2 µM | 12.6 µM | 3.98 µM | 6.31 µM | 31.6 µM | – | CCNc1ccc(-c2ccc3nc(N)sc3c2)cn1
15.8 µM | 1.58 µM | 2 µM | 3.98 µM | 1 µM | 1 µM | > 100 µM | – | Nc1nc2ccc(-c3ccc(C(F)(F)F)nc3)cc2s1
25.1 µM | 7.94 µM | 158 µM | 39.8 µM | 10 µM | 12.6 µM | 10 µM | – | CS(=O)(=O)c1ccc(-c2ccc3nc(N)sc3c2)cn1
0.316 µM | 0.501 µM | 1.26 µM | 6.31 µM | 1.26 µM | 2 µM | > 100 µM | – | Nc1nc2ccc(-c3ccc(OCCO)nc3)cc2s1
1 µM | 1 µM | 0.501 µM | 1.26 µM | 0.251 µM | 1.26 µM | 31.6 µM | – | CC(C)Oc1cncc(-c2ccc3nc(N)sc3c2)c1
0.00631 µM | 1.58 µM | 6.31 µM | > 126 µM | 1.58 µM | 12.6 µM | > 79.4 µM | 0.501 µM | Nc1nc2ccc(-c3ccn(CC4CC4)c(=O)c3)cc2s1
0.00794 µM | 0.316 µM | > 200 µM | > 200 µM | 63.1 µM | > 200 µM | > 100 µM | 0.631 µM | C[C@@H](Nc1nc2ccc(-c3ccn(CC4CC4)c(=O)c3)cc2s1)C1CCOCC1
0.0398 µM | 2.51 µM | > 200 µM | > 200 µM | > 200 µM | > 200 µM | 25.1 µM | 7.94 µM | C[C@H](Nc1nc2ccc(-c3ccn(CC4CC4)c(=O)c3)cc2s1)C1CCOCC1
